Read-outs that look alike come from different tables or passages of the source.
Experiments:
[1] = target: COVID-19 (nCoV-2019, SARS-CoV2) Mpro (Severe acute respiratory syndrome coronavirus 2, UniProt P0DTD1); experiment: COVID-19 (nCoV-2019, SARS-CoV2) Mpro enzymatic assay; assay type: biochemical; conditions: 25 nM Mpro, 25 μM substrate; read-out: COVID-19 Mpro IC50
[2] = target: 229E Mpro (Human coronavirus 229E, UniProt P0C6X1); experiment: 229E Mpro enzymatic assay (standard methods, SARS-CoV2 Mpro assay given as exemplary); assay type: biochemical, human coronavirus (HCov) 229E
Procedure: Compounds were assayed using standard methods to assess compound activity and IC50. As an exemplary for assessment of the SARS-COV2 Mpro, the C-His6-tagged Mpro (NC_045512) was cloned, expressed in E. coli and purified. The assay buffer contained 20 mM of Tris-HCl (pH 7.3), 100 mM of NaCl, 1 mM of EDTA, 5 mM of TCEP and 0.1% BSA. The final concentrations of the Mpro protein and substrate were 25 nM and 25 μM, respectively, in the Mpro enzymatic assay. The Km of the Mpro substrate for the protease was 13.5 μM.
The compounds were added to an assay plate. […] For no inhibition control (ZPE, zero percent effect), no compound was added.
IC50 values of compounds were calculated with the GraphPad Prism software using the nonlinear regression model of log(inhibitor) vs. response—Variable slope (four parameters). The inhibition activity was calculated using the formula below, IC50 values is calculated using the Inhibition % data.
Inhibition %=[(Sample-Average ZPE)/(Average HPE-Average ZPE)]*100%^#

[3] = tested on: HCov OC43; experiment: HCoV OC43 cytopathic effect (CPE) assay, CellTiter Glo; assay type: cell-based, human coronavirus (HCov) OC43
Procedure: Example 238: Evaluation of antiviral activity of compounds against human coronavirus (HCov) 229E and OC43 in the cytopathic effect (CPE) assays
Compounds were assayed using standard methods against multiple coronaviral strains, including HCoV 229E and OC43 strains. The antiviral activity of compounds was calculated based on the protection of the virus-induced CPE at each concentration normalized by the virus control.
Reference compound used was remdesivir; detection reagent: CellTiter Glo.) The CPE were measured by CellTiter Glo following the manufacturer's manual. The antiviral activity of compounds was calculated based on the protection of the virus-induced CPE at each concentration normalized by the virus control.
Cell viability was measured with CellTiter Glo.

[4] = read-out: OC43 IC50 (uM) MEDIAN, median
[5] = Betacoronavirus 1, OC43, read-out: OC43 IC50 (uM) MEDIAN, median

Sequence of 229E Mpro (P0C6X1 2966-3267): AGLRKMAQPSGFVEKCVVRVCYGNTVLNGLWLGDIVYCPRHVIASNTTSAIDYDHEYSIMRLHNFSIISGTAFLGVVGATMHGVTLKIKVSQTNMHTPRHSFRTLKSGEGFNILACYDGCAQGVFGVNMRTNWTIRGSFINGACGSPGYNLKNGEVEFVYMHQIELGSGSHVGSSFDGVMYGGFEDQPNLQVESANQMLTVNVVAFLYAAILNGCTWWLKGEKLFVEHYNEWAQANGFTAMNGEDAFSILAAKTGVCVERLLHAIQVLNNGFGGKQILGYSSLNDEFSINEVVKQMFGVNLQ

| Compound | IC50 [1] | EC50 ([2]; 229E Mpro EC50) | IC50 [3, 4] | EC50 ([2]; read-out: 229E Mpro EC50) | IC50 [3, 5] |
| --- | --- | --- | --- | --- | --- |
| CC(C)(C)c1ccc(N(C(=O)[C@H]2C[C@@H](Oc3ccccc3)CN2C#N)C(C(=O)NC2CCCCC2)c2cccnc2)cc1 (single isomer, unassigned) [307 Isomer 2] | > 30 µM | 2 to 10 µM | 2 to 10 µM | – | – |
| CC(C)(C)c1ccc(N(C(=O)[C@H]2CCCN2C#N)C(C(=O)NCCN2CCOCC2)c2cccnc2)cc1 (single isomer, unassigned) [391 Isomer 1] | < 2 µM | < 2 µM | < 2 µM | – | – |
| CC(C)(C)c1ccc(N(C(=O)[C@H]2CCCN2C#N)C(C(=O)NCCN2CCOCC2)c2cccnc2)cc1 (single isomer, unassigned) [391 Isomer 2] | 10 to 30 µM | 2 to 10 µM | 10 to 30 µM | – | – |
| CC(C)(C)c1ccc(N(C(=O)[C@H]2CCCN2C#N)C(C(=O)NC2CCCCC2)c2cncc(F)c2)cc1 (single isomer, unassigned) [475 Isomer 1] | < 2 µM | < 2 µM | 2 to 10 µM | – | – |
| CC(C)(C)c1ccc(N(C(=O)[C@H]2CCCN2C#N)C(C(=O)NC2CCCCC2)c2cncc(F)c2)cc1 (single isomer, unassigned) [475 Isomer 2] | 10 to 30 µM | 2 to 10 µM | 10 to 30 µM | – | – |
| CC(C)(C)c1ccc(N(C(=O)[C@H]2C[C@@H](O)CN2C#N)C(C(=O)NC2CCCC2)c2cccnc2)cc1 (single isomer, unassigned) [595 Isomer 2] | < 2 µM | – | < 2 µM | < 2 µM | – |
| CC(C)(C)c1ccc(N(C(=O)[C@H]2C[C@@H](O)CN2C#N)C(C(=O)NCc2cccnc2)c2cccnc2)cc1 (single isomer, unassigned) [643 Isomer 1] | < 2 µM | < 2 µM | – | – | < 2 µM |
| CC(C)(C)c1ccc(N(C(=O)[C@H]2C[C@@H](O)CN2C#N)C(C(=O)NCc2cccnc2)c2cccnc2)cc1 (single isomer, unassigned) [643 Isomer 2] | 2 to 10 µM | – | 2 to 10 µM | < 2 µM | – |
| COCCCNC(=O)C(c1cccnc1)N(C(=O)[C@H]1C[C@@H](O)CN1C#N)c1ccc(C(C)(C)C)cc1 (single isomer, unassigned) [647 Isomer 1] | < 2 µM | < 2 µM | – | – | < 2 µM |
| CC(C)(C)c1ccc(N(C(=O)[C@H]2C[C@@H](O)CN2C#N)C(C(=O)NC2CCCCC2)c2cncc(Cl)c2)cc1 (single isomer, unassigned) [675 Isomer 1] | < 2 µM | < 2 µM | – | – | < 2 µM |
| CC(C)(C)c1ccc(N(C(=O)[C@H]2C[C@@H](O)CN2C#N)C(C(=O)NC2CCCCC2)c2cncc(Cl)c2)cc1 (single isomer, unassigned) [675 Isomer 2] | 2 to 10 µM | – | 2 to 10 µM | < 2 µM | – |
| N#CN1C[C@H](O)C[C@@H]1C(=O)N(c1ccc(C2(C(F)(F)F)CC2)cc1)C(C(=O)NC1CCCCC1)c1cccnc1 (single isomer, unassigned) [735 Isomer 1] | < 2 µM | < 2 µM | – | – | < 2 µM |
| N#CN1C[C@H](O)C[C@@H]1C(=O)N(c1ccc(C2(C(F)(F)F)CC2)cc1)C(C(=O)NC1CCCCC1)c1cccnc1 (single isomer, unassigned) [735 Isomer 2] | 2 to 10 µM | – | 2 to 10 µM | < 2 µM | – |
| CC(C)(C)c1ccc(N(C(=O)[C@H]2CCCN2C#N)C(C(=O)NC2CCCCC2)c2cccnc2)cc1 (single isomer, unassigned) [Compound 130a] | < 2 µM | < 2 µM | – | – | – |
| CC(C)(C)c1ccc(N(C(=O)[C@H]2CCCN2C#N)C(C(=O)NC2CCCCC2)c2cccnc2)cc1 (single isomer, unassigned) [Compound 130b] | > 30 µM | 2 to 10 µM | – | – | – |
| CC(C)(C)OC(=O)N1CCC[C@@H]1C(=O)N(c1ccc(C(C)(C)C)cc1)C(C(=O)NC1CCCCC1)c1cccnc1 (single isomer, unassigned) [Compound 131a] | > 30 µM | > 30 µM | – | – | – |
| CC(C)(C)c1ccc(N(C(=O)[C@@H]2CCCN2)C(C(=O)NC2CCCCC2)c2cccnc2)cc1 (single isomer, unassigned) [Compound 131c] | > 30 µM | > 30 µM | – | – | – |
| N#CN1C[C@H]2C[C@H]2[C@@H]1C(=O)N(c1ccc(S(F)(F)(F)(F)F)cc1)C(C(=O)NC1CCC(F)(F)CC1)c1cncc(F)c1 (single isomer, unassigned) [Compound 1095b Isomer 2] | < 2 µM | – | < 2 µM | – | – |
| CC(C)(C)c1ccc(N(C(=O)c2cnc[nH]2)C(C(=O)NC2CCCCC2)c2cccnc2Br)cc1 (stereo not drawn) [Compound 100a] | > 30 µM | – | – | – | – |
| CC(C)(C)c1ccc(N(C(=O)c2cnc[nH]2)C(C(=O)NC2CCCCC2)c2ccc(C(F)(F)F)nc2Cl)cc1 (stereo not drawn) [Compound 102a] | > 30 µM | – | – | – | – |

Source: US20220380347A1, “INHIBITORS OF CYSTEINE PROTEASES AND METHODS OF USE THEREOF” (Pardes Biosciences, Inc., priority 2020, published 2022)
